Patent publication US10448639B2, “Fungicidal pyrazoles” (FMC CORPORATION, priority 2009, dated 2019)

Tests used:
[1] = tested on: Septoria tritici; test: Test G: wheat leaf blotch, preventive spray on wheat seedlings, visual disease rating
[2] = tested on: Septoria nodorum; test: Test F: Septoria glume blotch, preventive spray on wheat seedlings, visual disease rating
[3] = tested on: Puccinia recondita f. sp. tritici; test: Test I: wheat leaf rust, preventive spray on wheat seedlings, visual disease rating
[4] = tested on: Alternaria solani; test: Test C: tomato early blight, preventive spray on tomato seedlings, visual disease rating
[5] = tested on: Botrytis cinerea; test: Test B: tomato Botrytis, preventive spray on tomato seedlings, visual disease rating
[6] = tested on: Erysiphe graminis f sp. tritici; test: Test J: wheat powdery mildew, preventive spray on wheat seedlings, visual disease rating
Source text: General protocol for preparing test suspensions for Tests A-J: the test compounds were first dissolved in acetone in an amount equal to 3% of the final volume and then suspended at the desired concentration (in ppm) in acetone and purified water (50/50 mix by volume) containing 250 ppm of the surfactant Trem® 014 (polyhydric alcohol esters). The resulting test suspensions were then used in Tests A-J. Spraying a 200 ppm test suspension to the point of run-off on the test plants was the equivalent of a rate of 500 g/ha. Unless otherwise indicated, the rating values indicate a 200 ppm test suspension was used. (An asterisk “*” next to the rating value indicates a 40 ppm test suspension was used.)
The test suspension was sprayed to the point of run-off on wheat seedlings. The following day the seedlings were inoculated with a spore dust of Erysiphe graminis f sp. tritici, (the causal agent of wheat powdery mildew) and incubated in a growth chamber at 20° C. for 8 days, after which time visual disease ratings were made.

[7] = tested on: Puccinia recondita f. sp. tritici; test: Test H: wheat leaf rust, curative spray on inoculated wheat seedlings, visual disease rating
[8] = wheat leaf blotch, preventive spray, 100 = 100% disease control, 0 = no control
[9] = Septoria glume blotch on wheat, preventive spray, 100 = 100% disease control, 0 = no control
[10] = wheat leaf rust, preventive spray, 100 = 100% disease control, 0 = no control
[11] = tomato early blight, preventive spray, 100 = 100% disease control, 0 = no control
[12] = tomato Botrytis, preventive spray, 100 = 100% disease control, 0 = no control
[13] = wheat powdery mildew, preventive spray, 100 = 100% disease control, 0 = no control
[14] = wheat leaf rust, curative spray, 100 = 100% disease control, 0 = no control
[15] = wheat leaf blotch, 100 = 100% disease control, 0 = no control relative to controls
[16] = Septoria glume blotch, 100 = 100% disease control, 0 = no control relative to controls
[17] = wheat leaf rust, preventive, 100 = 100% disease control, 0 = no control relative to controls
[18] = tomato early blight, 100 = 100% disease control, 0 = no control relative to controls
[19] = tomato Botrytis, 100 = 100% disease control, 0 = no control relative to controls
[20] = wheat powdery mildew, 100 = 100% disease control, 0 = no control relative to controls
[21] = wheat leaf rust, curative, 100 = 100% disease control, 0 = no control relative to controls

COc1cc(OC)cc(-c2c(C)nn(C)c2Oc2c(F)cc(C#N)cc2F)c1 [compound 85]
Test G rating (% disease control) [1, 8]: 17%
Test F rating (% disease control) [2, 9]: 0%
Test I rating (% disease control) [3, 10]: 19%
Test C rating (% disease control) [4, 11]: 0%
Test B rating (% disease control) [5, 12]: 0%
Test J rating (% disease control) [6, 13]: 0%
Test H rating (% disease control) [7, 14]: 0%

COc1cccc(Oc2c(-c3c(F)cc(F)cc3F)c(C)nn2C)c1 [compound 213]
Test G rating (% disease control) [1, 15]: 85%
Test F rating (% disease control) [2, 16]: 0%
Test I rating (% disease control) [3, 17]: 96%
Test C rating (% disease control) [4, 18]: 30%
Test B rating (% disease control) [5, 19]: 97%
Test J rating (% disease control) [6, 20]: 100%
Test H rating (% disease control) [7, 21]: 94%

Cc1nn(C)c(Oc2ccc(Cl)cc2)c1-c1c(F)cc(F)cc1F [compound 27]
Test G rating (% disease control) [1, 8]: 95%
Test F rating (% disease control) [2, 9]: 0%
Test I rating (% disease control) [3, 10]: 25%
Test C rating (% disease control) [4, 11]: 88%
Test B rating (% disease control) [5, 12]: 99%
Test J rating (% disease control) [6, 13]: 87%
Test H rating (% disease control) [7, 14]: 0%

COc1cc(F)c(-c2c(C)nn(C)c2Oc2ccc(Cl)c(F)c2)c(F)c1 [compound 152]
Test G rating (% disease control) [1, 15]: 99%
Test F rating (% disease control) [2, 16]: 87%
Test I rating (% disease control) [3, 17]: 97%
Test C rating (% disease control) [4, 18]: 82%
Test B rating (% disease control) [5, 19]: 100%
Test J rating (% disease control) [6, 20]: 99%
Test H rating (% disease control) [7, 21]: 9%

Cc1nn(C)c(Nc2ccc(F)cc2F)c1-c1ccc(Cl)cc1Cl [Compound 69, 4-(2,4-Dichlorophenyl)-N-(2,4-difluorophenyl)-1,3-dimethyl-1H-pyrazol-5-amine]
pest or weed control at 200 µg/mL ([1]; Zymoseptoria tritici, in Triticum aestivum, 504 h, read-out: Test G rating (% disease control)): 99%
pest or weed control at 200 µg/mL ([2]; Parastagonospora nodorum, in Triticum aestivum, 192 h, read-out: Test F rating (% disease control)): 60%
pest or weed control at 200 µg/mL ([3]; 192 h, read-out: Test I rating (% disease control)): 99%
pest or weed control at 200 µg/mL ([4]; Alternaria solani, in Solanum lycopersicum, 168 h, read-out: Test C rating (% disease control)): 73%
pest or weed control at 200 µg/mL ([5]; Botrytis cinerea, in Solanum lycopersicum, 120 h, read-out: Test B rating (% disease control)): 100%
pest or weed control at 200 µg/mL ([6]; Blumeria graminis, in Triticum aestivum, 192 h, read-out: Test J rating (% disease control)): 100%
pest or weed control at 200 µg/mL ([7]; 144 h, read-out: Test H rating (% disease control)): 91%

COc1cc(Nc2c(-c3c(F)cc(C#N)cc3F)c(C)nn2C)ccc1F [compound 127]
Test G rating (% disease control) [1, 8]: 99%
Test F rating (% disease control) [2, 9]: 0%
Test I rating (% disease control) [3, 10]: 68%
Test C rating (% disease control) [4, 11]: 0%
Test B rating (% disease control) [5, 12]: 70%
Test J rating (% disease control) [6, 13]: 0%
Test H rating (% disease control) [7, 14]: 0%

Cc1nn(C)c(Nc2ccc(Br)cc2F)c1-c1ccc(F)cc1Cl [compound 366]
Test G disease control rating ([1]; wheat leaf blotch, sprayed the day before inoculation, 100 = 100% disease control, 0 = no disease control relative to controls): 100%
Test F disease control rating ([2]; Septoria glume blotch on wheat, 100 = 100% disease control, 0 = no disease control relative to controls): 0%
Test I disease control rating ([3]; wheat leaf rust, sprayed the day before inoculation, 100 = 100% disease control, 0 = no disease control relative to controls): 99%
Test C disease control rating ([4]; tomato early blight, 100 = 100% disease control, 0 = no disease control relative to controls): 58%
Test B disease control rating ([5]; tomato Botrytis, 100 = 100% disease control, 0 = no disease control relative to controls): 100%
Test J disease control rating ([6]; wheat powdery mildew, sprayed the day before inoculation, 100 = 100% disease control, 0 = no disease control relative to controls): 100%
Test H disease control rating ([7]; wheat leaf rust, sprayed after inoculation, 100 = 100% disease control, 0 = no disease control relative to controls): 9%

Cc1nn(C)c(Nc2ccc(C#N)cc2F)c1-c1ccc(F)cc1F [compound 246]
Test G rating (% disease control) [1, 15]: 100%
Test F rating (% disease control) [2, 16]: 0%
Test I rating (% disease control) [3, 17]: 80%
Test C rating (% disease control) [4, 18]: 51%
Test B rating (% disease control) [5, 19]: 99%
Test J rating (% disease control) [6, 20]: 100%
Test H rating (% disease control) [7, 21]: 0%

COc1ccc(-c2c(C)nn(C)c2Nc2c(F)cc(F)cc2F)c(Cl)c1 [compound 104]
Test G rating (% disease control) [1, 8]: 99%
Test F rating (% disease control) [2, 9]: 97%
Test I rating (% disease control) [3, 10]: 99%
Test C rating (% disease control) [4, 11]: 99%
Test B rating (% disease control) [5, 12]: 100%
Test J rating (% disease control) [6, 13]: 100%
Test H rating (% disease control) [7, 14]: 99%

COc1cc(F)c(-c2c(C)nn(C)c2Oc2ccc(Cl)cc2Cl)c(F)c1 [compound 40]
Test G rating (% disease control) [1, 8]: 94%
Test F rating (% disease control) [2, 9]: 0%
Test I rating (% disease control) [3, 10]: 99%
Test C rating (% disease control) [4, 11]: 0%
Test B rating (% disease control) [5, 12]: 99%
Test J rating (% disease control) [6, 13]: 99%
Test H rating (% disease control) [7, 14]: 92%
